According to patent EP1329454A1, “THIENOPYRIMIDINE COMPOUNDS AND THEIR SALTS AND PROCESS FOR PREPARATION OF BOTH” (NIPPON SODA CO., LTD., priority 2000, dated 2002):

Columns and labels:
Format in all cases: biochemical
[1] = target: T1, PDE 5 (cGMP specific PDE) (Homo sapiens, UniProt O76074); test: Phosphodiesterase inhibiting effect, PDE 5 separated from human platelets; settings: isozyme from human platelets; [3H]-cAMP or [3H]-cGMP substrate; read-out: PDE inhibiting activity : IC50(nM) PDE5
T1 construct: from tissue; host or cells: human platelets, DEAE-cellulose fraction
Method: (§1) Cyclic nucleotide phosphodiesterases from human platelets and from the heart and kidney of a dog were eluted by the concentration gradient method with 70 to 1000 mM of sodium acetate on DEAE-cellulose column chromatography (Whatman Co. Ltd., DE-52, φ 3.2 x 13 cm) according to the method of Thompson and others (Thompson W. J., et al., Advances in Cyclic Nucleotide Research: 10, 69-92, 1979), and separated into isozymes. PDE 5 (cGMP specific PDE), PDE 3 (cGMP inhibited PDE) and PDE 2 (cGMP stimulated PDE) were separated from the platelets, PDE 1 (Ca-calmodulin dependent PDE) and PDE 4 (cAMP specific PDE) were separated from the heart and the kidney respectively. The method of Thompson, et al was partially modified to measure phosphodiesterase activities: […] of [3H]-cAMP or [3H]-cGMP was decomposed with phosphodiesterase. The produced 5'-AMP or 5'-GMP was decomposed to adenosine or guanosine with a snake venom (Sigma V7000). The reaction solution was added to anion exchange resin (Bio-Rad Co. Ltd., AG1-X8). Non-adsorbed adenosine or guanosine was counted by a liquid scintillation counter. […]

[2] = target: PDE 1 (Ca-calmodulin dependent PDE); test: Phosphodiesterase inhibiting effect, PDE 1 separated from dog heart; settings: isozyme from the heart of a dog; [3H]-cAMP or [3H]-cGMP substrate; read-out: PDE inhibiting activity : IC50(nM) PDE1
Method: as §1

[3] = target: PDE 4 (cAMP specific PDE); test: Phosphodiesterase inhibiting effect, PDE 4 separated from dog kidney; settings: isozyme from the kidney of a dog; [3H]-cAMP or [3H]-cGMP substrate; read-out: PDE inhibiting activity : IC50(nM) PDE4
Method: as §1

[4] = target: T2, PDE 3 (cGMP inhibited PDE) (Homo sapiens, UniProt Q14432); settings: isozyme from human platelets; [3H]-cAMP or [3H]-cGMP substrate; read-out: PDE inhibiting activity : IC50(nM) PDE3
T2 construct: from tissue; host or cells: human platelets, DEAE-cellulose fraction
Source text: PDE 5 (cGMP specific PDE), PDE 3 (cGMP inhibited PDE) and PDE 2 (cGMP stimulated PDE) were separated from the platelets, PDE 1 (Ca-calmodulin dependent PDE) and PDE 4 (cAMP specific PDE) were separated from the heart and the kidney respectively. The method of Thompson, et al was partially modified to measure phosphodiesterase activities: […] of [3H]-cAMP or [3H]-cGMP was decomposed with phosphodiesterase. The produced 5'-AMP or 5'-GMP was decomposed to adenosine or guanosine with a snake venom (Sigma V7000). The reaction solution was added to anion exchange resin (Bio-Rad Co. Ltd., AG1-X8). Non-adsorbed adenosine or guanosine was counted by a liquid scintillation counter.

T2 sequence (Q14432 whole entry): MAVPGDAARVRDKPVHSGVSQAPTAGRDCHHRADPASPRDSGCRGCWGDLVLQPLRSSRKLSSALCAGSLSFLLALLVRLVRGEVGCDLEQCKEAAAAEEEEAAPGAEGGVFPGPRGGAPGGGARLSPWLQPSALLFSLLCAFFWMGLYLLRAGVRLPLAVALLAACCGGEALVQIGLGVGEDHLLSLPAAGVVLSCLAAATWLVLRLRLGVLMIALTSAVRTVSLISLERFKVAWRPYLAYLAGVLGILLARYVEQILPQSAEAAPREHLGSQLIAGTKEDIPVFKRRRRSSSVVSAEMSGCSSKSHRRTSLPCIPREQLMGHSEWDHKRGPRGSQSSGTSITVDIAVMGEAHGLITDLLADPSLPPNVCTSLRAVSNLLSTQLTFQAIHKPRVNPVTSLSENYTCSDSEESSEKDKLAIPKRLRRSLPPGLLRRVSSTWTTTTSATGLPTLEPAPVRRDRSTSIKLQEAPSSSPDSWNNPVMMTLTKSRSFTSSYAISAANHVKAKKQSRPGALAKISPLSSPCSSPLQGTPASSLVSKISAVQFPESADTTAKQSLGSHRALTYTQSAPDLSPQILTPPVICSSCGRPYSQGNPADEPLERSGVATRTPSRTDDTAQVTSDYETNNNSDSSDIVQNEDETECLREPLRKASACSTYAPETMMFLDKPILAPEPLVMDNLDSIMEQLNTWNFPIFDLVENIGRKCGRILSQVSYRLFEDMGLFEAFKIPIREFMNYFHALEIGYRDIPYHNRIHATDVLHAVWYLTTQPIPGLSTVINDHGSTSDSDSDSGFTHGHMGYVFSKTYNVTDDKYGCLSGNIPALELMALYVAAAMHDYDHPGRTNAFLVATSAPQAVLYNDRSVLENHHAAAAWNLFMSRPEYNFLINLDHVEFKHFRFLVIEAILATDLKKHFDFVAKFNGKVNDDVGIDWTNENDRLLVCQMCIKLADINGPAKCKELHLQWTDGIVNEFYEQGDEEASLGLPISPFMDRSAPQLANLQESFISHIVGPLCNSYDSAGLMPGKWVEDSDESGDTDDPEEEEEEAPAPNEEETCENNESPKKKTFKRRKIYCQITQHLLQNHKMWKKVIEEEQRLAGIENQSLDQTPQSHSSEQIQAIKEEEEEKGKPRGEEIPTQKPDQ

Structure (SMILES) | IC50 [1] [nM] | IC50 [2] [nM] | IC50 [3] [nM] | IC50 [4] [nM]
COc1ccc(CNc2nc(-c3cccnc3)nc3sc(C(=O)O)c(C)c23)cc1Cl [Compound 1] | 3 | 7100 | 1200 | –
COc1ccc(CNc2nc(-c3cccnc3)nc3sc(C(N)=O)c(C)c23)cc1Cl [Compound 3] | 2.3 | – | – | –
COc1ccc(CNc2nc(-c3cccnc3)nc3sc(C#N)c(C)c23)cc1Cl [Compound 4] | 4.5 | – | – | –
COc1ccc(CNc2nc(-c3cccnc3)nc3sc(C(=O)N(C)C)c(C)c23)cc1Cl [Compound 5] | 3.7 | > 10000 | 1400 | –
COc1ccc(CNc2nc(-c3cccnc3)nc3sc(C(=O)Nc4ccccc4)c(C)c23)cc1Cl [Compound 6] | 1.5 | > 10000 | – | –
COc1ccc(CNc2nc(-c3cccnc3)nc3sc(C(=O)N4CCOCC4)c(C)c23)cc1Cl [Compound 7] | 3.5 | > 10000 | 1700 | –
COc1ccc(CNc2nc(-c3cccnc3)nc3sc(C(=O)N4CCN(C=O)CC4)c(C)c23)cc1Cl [Compound 9] | 6.1 | – | – | –
COc1ccc(CNc2nc(-c3cccnc3)nc3sc(-c4ccncc4)c(C)c23)cc1Cl [Compound 10] | 3.3 | > 10000 | – | –
COc1ccc(CNc2nc(-c3cccnc3)nc3sc(C(=O)Nc4nccs4)c(C)c23)cc1Cl [Compound 13] | 0.32 | – | – | –
COc1ccc(CNc2nc(-c3cccnc3)nc3sc(C(=O)Nc4cccnc4)c(C)c23)cc1Cl [Compound 14] | 2.1 | – | – | –
COc1ccc(CNc2nc(-c3cccnc3)nc3sc(C(=O)NCCO)c(C)c23)cc1Cl [Compound 17] | 2.8 | – | – | –
COc1ccc(CNc2nc(-c3cccnc3)nc3sc(C(=O)NCCO[N+](=O)[O-])c(C)c23)cc1Cl [Compound 18] | 2.8 | – | – | –
COc1ccc(CNc2nc(-c3ccncc3)nc3sc(C(=O)O)c(C)c23)cc1Cl [Compound 19] | 0.74 | > 10000 | 4400 | –
CCOC(=O)c1sc2nc(-c3ccncc3)nc(NCc3ccc(OC)c(Cl)c3)c2c1C [Compound 20] | 3.2 | > 10000 | > 10000 | –
COc1ccc(CNc2nc(-c3ccncc3)nc3sc(C(=O)N(C)C)c(C)c23)cc1Cl [Compound 23] | 1.6 | > 10000 | 1600 | –
COc1ccc(CNc2nc(-c3ccncc3)nc3sc(C(=O)Nc4ccccc4)c(C)c23)cc1Cl [Compound 24] | 0.46 | – | – | –
COc1ccc(CNc2nc(-c3ccncc3)nc3sc(C(=O)Nc4ccc(NC(=O)OC(C)(C)C)cc4)c(C)c23)cc1Cl [Compound 25] | 0.52 | – | – | –
COc1ccc(CNc2nc(-c3ccncc3)nc3sc(C(=O)Nc4ccc(N)cc4)c(C)c23)cc1Cl [Compound 26] | 0.5 | – | – | –

Structure (SMILES) | IC50 [1] [nM] | IC50 [2] [nM] | IC50 [3] [nM] | IC50 [4] [nM]
COc1ccc(CNc2nc(-c3ccncc3)nc3sc(C(=O)N4CCOCC4)c(C)c23)cc1Cl [Compound 27] | 0.53 | > 10000 | 3700 | –
COc1ccc(CNc2nc(-c3ccncc3)nc3sc(C(=O)N4CCCCC4)c(C)c23)cc1Cl [Compound 28] | 0.5 | > 10000 | 1600 | –
COc1ccc(CNc2nc(-c3ccncc3)nc3sc(C(=O)N4CCN(C)CC4)c(C)c23)cc1Cl [Compound 29] | 0.52 | > 10000 | 6900 | –
COc1ccc(CNc2nc(-c3ccncc3)nc3sc(-c4ccccn4)c(C)c23)cc1Cl [Compound 32] | 0.68 | > 10000 | 240 | –
COc1ccc(CNc2nc(-c3ccncc3)nc3sc(C(=O)Nc4nccs4)c(C)c23)cc1Cl [Compound 33] | 0.095 | – | – | –
COc1ccc(CNc2nc(-c3ccncc3)nc3sc(C(=O)NCCO[N+](=O)[O-])c(C)c23)cc1Cl [Compound 38] | 0.65 | – | – | –
COc1ccc(CNc2nc(-c3ccccn3)nc3sc(C(=O)Nc4ccccc4)c(C)c23)cc1Cl [Compound 44] | 6.4 | > 10000 | – | –
COc1ccc(CNc2nc(-c3ccccn3)nc3sc(C(=O)Nc4nccs4)c(C)c23)cc1Cl [Compound 50] | 2.3 | – | – | –
COc1ccc(CNc2nc(-c3ccccn3)nc3sc(C(=O)Nc4cccnc4)c(C)c23)cc1Cl [Compound 51] | 7.2 | – | – | –
COc1ccc(CNc2nc(C(=O)Nc3ccccc3)nc3sc(-c4cccnc4)c(C)c23)cc1Cl [Compound 57] | 0.29 | – | – | –
COc1ccc(CNc2nc(C(=O)Nc3ccccc3)nc3sc(-c4ccncc4)c(C)c23)cc1Cl [Compound 68] | 0.27 | > 10000 | 10000 | 2400
COc1ccc(CNc2nc(C(=O)Nc3ccccc3)nc3sc(C(=O)Nc4ccccc4)c(C)c23)cc1Cl [Compound 87] | 0.27 | – | – | –
COc1ccc(CNc2nc(C(=O)Nc3ccccc3)nc3sc(-c4ccc(F)cc4)c(C)c23)cc1Cl [Compound 90] | 0.43 | > 10000 | 8400 | > 10000
COc1ccc(CNc2nc(C(=O)Nc3ccccc3)nc3scc(C)c23)cc1Cl [Compound 91] | 2.5 | > 10000 | 3400 | > 10000
CCOC(=O)c1nc(NCc2ccc(OC)c(Cl)c2)c2cc(-c3ccccc3)sc2n1 [Compound 93] | 2.9 | > 10000 | > 10000 | > 10000
COc1ccc(CNc2nc(C(=O)Nc3ccccc3)nc3sc(-c4ccccc4)cc23)cc1Cl [Compound 94] | 0.71 | > 10000 | 5600 | > 10000
CCCc1nn(C)c2c(=O)[nH]c(-c3cc(S(=O)(=O)N4CCN(C)CC4)ccc3OCC)nc12 [Control, Sildenafil, reference compound] | – | 2000 | > 1000 | –
